Assay results from patent US20250051391A1, “PEPTIDE INHIBITORS AND METHODS FOR INHIBITING PROTEIN AGGREGATION IN NEURONS AND NEURODEGENERATIVE DISEASES” (THE GOVERNING COUNCIL OF THE UNIVERSITY OF TORONTO, priority 2021, published 2025).
“Also recorded” adds a separate entry of the source. Numbered stars: 1 amine (or outer) side, 2 acyl side, 3 side chain; on linkers, the order of the positions; unused ones are H or OH. Bridge positions count the residues as written; N and C are the ends. Ends that are not written are not given here. Peptide text beside a SMILES is read from it. * marks the point of attachment. Perfluorobiphenyl(4,4') = Fc1c(F)c([*:1])c(F)c(F)c1-c1c(F)c(F)c([*:2])c(F)c1F; FITC = O=C1OC2(c3ccc(O)cc3Oc3cc(O)ccc32)c2ccc(NC(=S)*)cc21; Ahx = NCCCCCC(=O)O

What was measured:
WT a-syn oligomers = assay: Split luciferase a-syn oligomer/aggregation assay; type: cell-based, human; details: cells stably expressing split luciferase a-synuclein constructs; stapled peptides
Experimental: tet-off cells stably expressing split luciferase a-syn constructs were trypsinized from subconfluent culture and seeded in a 96-well plate at a density of 15,000 cells per well. Cells were incubated overnight at 37° C. in 5% CO2. […] After 6 h of incubation, 20 μL of cell medium was transferred to a black flat-bottomed 96-well plate. 50 μL of Working solution (Pierce Gaussia-Firefly Luciferase Dual Assay Kit, Thermo Scientific #16181) was added into each well containing cell medium. Immediately after adding the reagent, samples were read using a luminometer with a 480 nm filter.

[1] = test system: HEK293 cells overexpressing WT or A53T a-syn; assay: Cell Titer-Glo cell viability assay in a-syn expressing cells; type: cell-based, human
[2] = test system: HEK293 cells overexpressing WT or A53T a-syn; assay: as above; type: cell-based, human; details: HEK293 cells overexpressing WT or A53T a-syn, with or without MG132; expressed GFP-peptide or protein
Experimental: Oligonucleotides encoding the specific peptides were synthesized and individually cloned into the pLJM1 nGFP lentiviral vector. Cells were infected with individual constructs, and cell viability was assessed using Cell Titer-Glo Luminescent assay (Promega) at 72 h post infection.
Cells were trypsinized from subconfluent cultures as described earlier, suspended in culture media, and then seeded into triplicate wells of a 96-well plate (100 μl well/1) at a density of 1.5×10^4 cells per well at standard culture conditions of 5% CO2 in air at 37° C. Cells were infected with lentivirus expressing peptide at an MOI of 5 for 72 h or transfected with plasmid for 72 h. Cell Titer-Glo reagent was added to each well (30 μL), according to the manufacturer's protocol and […].

A53T a-syn = assay: a-syn protein levels by immunoblot in HEK293 cells; type: cell-based, human; details: HEK293 cells expressing A53T a-syn
Experimental: Infected or transfected cells were scraped from 6-well dishes and lysed with lysis buffer (50 mM Tris-HCl pH7.4, 1% Nonidet P-40, 150 mM NaCl, 1 mM EDTA, 1× protease inhibitor mixture (Sigma)) for 30 min at 4° C. The insoluble pellet was removed following a 10,000 rpm spin for 5 minutes at 4° C. Lysates were analyzed by SDS-PAGE/immunoblot using 4-20% Mini-PROTEAN Tris-glycine gels (Bio-Rad) transferred to PVDF membranes and blocked in 5% milk containing PBS-Tween-20 (0.1%) for 1 h. PVDF membranes were then incubated with specified primary antibodies followed by incubation with horseradish peroxidase-conjugated secondary antibodies (Santa Cruz Biotechnology) and detected using enhanced chemiluminescence (GE Healthcare).

VPS4 = details: motif-domain interaction, reference (20); read-out: affinity of CHMP2B-VPS4 interaction; cited from earlier work
[3] = target: T1, Charged multivesicular body protein 2B (CHMP2B), full length, purified (human, UniProt Q9UQN3 2-213); assay: fluorescence polarization, FITC-labelled a-syn peptide, CHMP2B titrated
T1 construct: mature; not shown: tag from the pET-DEST42 vector used for Ni-NTA purification

[4] = target: T1, Charged multivesicular body protein 2B …; assay: fluorescence polarization, stapled peptide against full length CHMP2B
CHMP2B 1-199 truncation [5] = target: T2, CHMP2B 1-199 truncation (human, UniProt Q9UQN3 1-199); assay: fluorescence polarization, stapled peptide against truncated CHMP2B (1-199)
T2 construct: Tags and purification of the truncated protein are not described

[6] = target: T1, Charged multivesicular body protein 2B …; assay: fluorescence polarization
CHMP2B 1-199 truncation [7] = target: T2, CHMP2B 1-199 truncation; assay: fluorescence polarization
[8] = target: T1, Charged multivesicular body protein 2B …; assay: fluorescence polarization, 50 nM FITC-peptide, CHMP2B titrated
[9] = target: T3, VPS4B, purified (His-tagged Sumo construct) (UniProt O75351 1-444); assay: fluorescence polarization (FIG. 8)
T3 construct: also called Vacuolar Protein Sorting 4; not shown: His tag and Sumo (pRSet B vector)
T3 sequence (looked up): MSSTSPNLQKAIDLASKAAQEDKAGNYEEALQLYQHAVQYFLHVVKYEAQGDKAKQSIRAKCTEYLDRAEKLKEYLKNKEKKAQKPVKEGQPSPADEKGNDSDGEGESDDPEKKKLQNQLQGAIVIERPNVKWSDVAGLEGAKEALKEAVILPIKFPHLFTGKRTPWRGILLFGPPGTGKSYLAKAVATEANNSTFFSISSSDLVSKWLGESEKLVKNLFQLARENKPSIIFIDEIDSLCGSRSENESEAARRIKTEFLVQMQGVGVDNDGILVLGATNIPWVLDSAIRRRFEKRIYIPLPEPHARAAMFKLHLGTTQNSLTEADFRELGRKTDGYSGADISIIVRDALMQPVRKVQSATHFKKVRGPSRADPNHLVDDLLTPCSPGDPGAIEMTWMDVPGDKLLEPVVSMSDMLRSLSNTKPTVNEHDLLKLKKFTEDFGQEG

[10] = target: T3, VPS4B, purified (His-tagged Sumo …); assay: fluorescence polarization, FITC-peptide against VPS4B

T1 sequence (Q9UQN3 2-213): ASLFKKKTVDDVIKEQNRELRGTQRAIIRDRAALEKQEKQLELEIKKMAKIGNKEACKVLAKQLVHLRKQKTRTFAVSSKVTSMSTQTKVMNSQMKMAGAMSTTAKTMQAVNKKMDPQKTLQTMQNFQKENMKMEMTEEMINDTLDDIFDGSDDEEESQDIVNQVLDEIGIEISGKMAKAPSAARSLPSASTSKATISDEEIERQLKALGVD
T2 sequence (Q9UQN3 1-199 limits assumed): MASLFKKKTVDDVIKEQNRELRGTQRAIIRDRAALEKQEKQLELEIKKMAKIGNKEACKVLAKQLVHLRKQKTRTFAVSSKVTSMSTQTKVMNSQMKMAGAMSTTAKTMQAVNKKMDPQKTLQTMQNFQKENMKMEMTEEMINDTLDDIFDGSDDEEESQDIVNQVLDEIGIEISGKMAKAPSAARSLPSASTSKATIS

Molecule: CC[C@H](C)[C@H](NC(=O)[C@H](CCC(=O)O)NC(=O)[C@H](CCC(=O)O)NC(=O)[C@H](CC(=O)O)NC(=O)CCCCCNC(=S)Nc1ccc2c(c1)C(=O)OC21c2ccc(O)cc2Oc2cc(O)ccc21)C(=O)N[C@H]1CSc2c(F)c(F)c(c(F)c2F)-c2c(F)c(F)c(c(F)c2F)SC[C@@H](C(N)=O)NC(=O)[C@H](CC(C)C)NC(=O)[C@H](C)NC(=O)[C@H](CC(=O)O)NC(=O)[C@H](CC(C)C)NC(=O)[C@H](CCC(N)=O)NC(=O)[C@H](CCCNC(=N)N)NC1=O ({FITC-Ahx}-DEEICRQLDALC-NH2; linker 5-12 via Perfluorobiphenyl(4,4'); N-terminus and C-terminus assumed)
- a-syn aggregation measured by luciferase activity (WT a-syn oligomers): significant reduction in a-syn aggregation
- A53T cell viability, stapled peptides incubated [1]: increase in A53T cell viability

Molecule: CHMP2B (1-178): shorter CHMP2B truncation (1-178) implicated in FTD
- cell viability / cytoprotective effect [2]: increased toxicity

Molecule: CHMP2B (1-199): truncated CHMP2B removing the MIM, residues 1-199
- a-syn protein levels by immunoblot (A53T a-syn): reduction in a-syn levels
- cell viability / cytoprotective effect [2]: rescues toxicity

Molecule: DEEYCRQWKALC (cysteine staple) [stapled macrocycle; cysteines introduced at the locations to be stapled]
- a-syn aggregation measured by luciferase activity (WT a-syn oligomers): significant reduction in a-syn aggregation
- A53T cell viability, stapled peptides incubated [1]: increase in A53T cell viability

Molecule: DIEICFQLKALC (cysteine staple) [stapled macrocycle; cysteines introduced at the locations to be stapled]
- a-syn aggregation measured by luciferase activity (WT a-syn oligomers): significant reduction in a-syn aggregation
- A53T cell viability, stapled peptides incubated [1]: increase in A53T cell viability

Molecule: full-length CHMP2B: Charged Multivesicular Body Protein 2B, member of ESCRT-III, uniprot ID Q9UQN3
- a-syn protein levels by immunoblot (A53T a-syn): reduced a-syn protein levels; also recorded: reduces a-syn levels
- Kd (VPS4): 178 µM
- cell viability / cytoprotective effect [2]: rescues a-syn cytotoxicity

B1: FITC-labelled a-syn peptide, amino acids 103-114 (NEEGAPQEGILE) (peptide)
peptide: {FITC}-NEEGAPQEGILE
- Kd [3]: 0.64 µM

B2: Stapled Pdpep1.4 variant DEEICRQLDALC (peptide)
peptide: {FITC}-DEEICRQLDALC
modifications: linker 5-12 via hexafluorobenzene (inferred)
notes: also called optimized macrocycle
- Kd [4]: 0.6 µM
- Kd (CHMP2B 1-199 truncation [5]): 0.06 µM

B3: Stapled peptide DIEICFQLKALC (peptide)
peptide: {FITC}-DIEICFQLKALC
modifications: linker 5-12 via hexafluorobenzene (inferred)
notes: as for B2
- binding result [6]: binds
- binding result (CHMP2B 1-199 truncation [7]): binds

B4: FITC-labeled PDpep1.3 peptide DEEIERQLKALG (peptide)
peptide: {FITC}-DEEIERQLKALG
notes: Synthetic peptide (LifeTein) with an N-terminal FITC moiety, used in the fluorescence polarization assays; also called DPpep1.3; FITC-Pdpep1.3
- Kd [8]: 1.8 µM
- Kd [9]: > 100 µM
- Kd [10]: ~200 µM
